Data published in ChEMBL document CHEMBL1201862, “PubChem BioAssay data set” (2004).
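Where inhibition never reached the appropriate level, the endpoint shown equals the highest concentration tested. Otherwise, values were interpolated linearly from a five-concentration, 48-hour dose response in 96-well plates. Abbreviation: GI50, concentration required for 50% inhibition of growth.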 Calls of active or inactive are those of the source. Rule as the data show it: active = GI50 up to about 1.1 µM and inactive = higher.

Key:
Assay in all cases: inhibition of tumour cell growth, NCI panel, 48 h
SW-620 = tested on: SW-620
NCI-H522 = tested on: NCI-H522
MOLT-4 = tested on: MOLT-4
HOP-62 = tested on: HOP-62
SN12C = tested on: SN12C
SF-268 = tested on: SF-268
LOX IMVI = tested on: LOX IMVI
OVCAR-4 = tested on: OVCAR-4
A549 = tested on: A549
NCI-H460 = tested on: NCI-H460
M14 = tested on: M14
CCRF-CEM = tested on: CCRF-CEM
NCI-H23 = tested on: NCI-H23
UACC-257 = tested on: UACC-257
DMS-273 = tested on: DMS-273
SK-MEL-28 = tested on: SK-MEL-28
DMS-114 = tested on: DMS-114
KM12 = tested on: KM12
M19-MEL = tested on: M19-MEL
OVCAR-5 = tested on: OVCAR-5
KM-20L2 = tested on: KM-20L2
DLD-1 = tested on: DLD-1
RXF 631 = tested on: RXF 631
HL-60 = tested on: HL-60
ACHN = tested on: ACHN
SK-MEL-2 = tested on: SK-MEL-2
RPMI-8226 = tested on: RPMI-8226
SF-295 = tested on: SF-295
SK-MEL-5 = tested on: SK-MEL-5
Malme-3M = tested on: Malme-3M
OVCAR-8 = tested on: OVCAR-8
K562 = tested on: K562
CAKI-1 = tested on: CAKI-1
786-0 = tested on: 786-0
EKVX = tested on: EKVX
RXF 393 = tested on: RXF 393
IGROV-1 = tested on: IGROV-1
HCC 2998 = tested on: HCC 2998
HCT-15 = tested on: HCT-15
SNB-78 = tested on: SNB-78
XF498 = tested on: XF498
COLO 205 = tested on: COLO 205
OVCAR-3 = tested on: OVCAR-3
HOP-92 = tested on: HOP-92
UACC-62 = tested on: UACC-62
TK-10 = tested on: TK-10
LXFL 529 = tested on: LXFL 529
SNB-75 = tested on: SNB-75
SK-OV-3 = tested on: SK-OV-3
HT-29 = tested on: HT-29
HOP-18 = tested on: HOP-18
SNB-19 = tested on: SNB-19
U-251 = tested on: U-251
SF-539 = tested on: SF-539
A498 = tested on: A498
HCT-116 = tested on: HCT-116
UO-31 = tested on: UO-31
NCI-H226 = tested on: NCI-H226

## CCOC(=O)C(C)c1c(C(=O)c2ccc(C)nc2)c2ccccc2n1C (stereo not drawn)
SW-620
  GI50: > 100000 nM (inactive)
NCI-H522
  GI50: 79600 nM (inactive)
MOLT-4
  GI50: > 100000 nM (inactive)
HOP-62
  GI50: > 100000 nM (inactive)
SN12C
  GI50: > 100000 nM (inactive)
SF-268
  GI50: > 100000 nM (inactive)
LOX IMVI
  GI50: > 100000 nM (inactive)
OVCAR-4
  GI50: > 100000 nM (inactive)
A549
  GI50: > 100000 nM (inactive)
NCI-H460
  GI50: > 100000 nM (inactive)
M14
  GI50: > 100000 nM (inactive)
CCRF-CEM
  GI50: > 100000 nM (inactive)
NCI-H23
  GI50: > 100000 nM (inactive)
UACC-257
  GI50: > 100000 nM (inactive)
DMS-273
  GI50: > 100000 nM (inactive)
SK-MEL-28
  GI50: > 100000 nM (inactive)
DMS-114
  GI50: > 100000 nM (inactive)
KM12
  GI50: > 100000 nM (inactive)
M19-MEL
  GI50: > 100000 nM (inactive)
OVCAR-5
  GI50: > 100000 nM (inactive)
KM-20L2
  GI50: > 100000 nM (inactive)
DLD-1
  GI50: > 100000 nM (inactive)
RXF 631
  GI50: > 100000 nM (inactive)
HL-60
  GI50: > 100000 nM (inactive)
ACHN
  GI50: > 100000 nM (inactive)
SK-MEL-2
  GI50: 82800 nM (inactive)
RPMI-8226
  GI50: 72100 nM (inactive)
SF-295
  GI50: > 100000 nM (inactive)
SK-MEL-5
  GI50: > 100000 nM (inactive)
Malme-3M
  GI50: > 100000 nM (inactive)
OVCAR-8
  GI50: > 100000 nM (inactive)
K562
  GI50: > 100000 nM (inactive)
CAKI-1
  GI50: > 100000 nM (inactive)
786-0
  GI50: > 100000 nM (inactive)
EKVX
  GI50: > 100000 nM (inactive)
RXF 393
  GI50: > 100000 nM (inactive)
IGROV-1
  GI50: > 100000 nM (inactive)
HCC 2998
  GI50: > 100000 nM (inactive)
HCT-15
  GI50: > 100000 nM
SNB-78
  GI50: > 100000 nM (inactive)
XF498
  GI50: 83000 nM (inactive)
COLO 205
  GI50: > 100000 nM (inactive)
OVCAR-3
  GI50: > 100000 nM (inactive)
HOP-92
  GI50: 82800 nM (inactive)
UACC-62
  GI50: > 100000 nM (inactive)
TK-10
  GI50: > 100000 nM (inactive)
LXFL 529
  GI50: > 100000 nM (inactive)
SNB-75
  GI50: 33300 nM (inactive)
SK-OV-3
  GI50: > 100000 nM (inactive)
HT-29
  GI50: > 100000 nM (inactive)

## CNC(=O)OCc1c2ccncc2c(C)c2c1[nH]c1ccc(OC)cc12
SW-620
  GI50: 164 nM (active)
NCI-H522
  GI50: 80.5 nM (active)
MOLT-4
  GI50: 40.4 nM (active)
HOP-18
  GI50: 254 nM (active)
HOP-62
  GI50: 156 nM (active)
SN12C
  GI50: 678 nM (active)
SF-268
  GI50: 161 nM (active)
LOX IMVI
  GI50: 256 nM (active)
OVCAR-4
  GI50: 256 nM (active)
A549
  GI50: 390 nM (active)
NCI-H460
  GI50: 190 nM (active)
M14
  GI50: 570 nM (active)
CCRF-CEM
  GI50: 176 nM (active)
NCI-H23
  GI50: 115 nM (active)
SNB-19
  GI50: 267 nM (active)
DMS-273
  GI50: 379 nM (active)
SK-MEL-28
  GI50: 605 nM (active)
DMS-114
  GI50: 226 nM (active)
KM12
  GI50: 573 nM (active)
U-251
  GI50: 182 nM (active)
M19-MEL
  GI50: 344 nM (active)
SF-539
  GI50: 154 nM (active)
A498
  GI50: 176 nM (active)
OVCAR-5
  GI50: 247 nM (active)
KM-20L2
  GI50: 227 nM (active)
RXF 631
  GI50: 675 nM (active)
HL-60
  GI50: 204 nM (active)
ACHN
  GI50: 193 nM (active)
SK-MEL-2
  GI50: 181 nM (active)
HCT-116
  GI50: 156 nM (active)
RPMI-8226
  GI50: 183 nM (active)
SF-295
  GI50: 352 nM (active)
Malme-3M
  GI50: 353 nM (active)
UO-31
  GI50: 148 nM (active)
OVCAR-8
  GI50: 209 nM (active)
K562
  GI50: 322 nM (active)
CAKI-1
  GI50: 968 nM (active)
786-0
  GI50: 156 nM (active)
EKVX
  GI50: 2210 nM (inactive)
IGROV-1
  GI50: 284 nM (active)
HCC 2998
  GI50: 290 nM (active)
HCT-15
  GI50: 495 nM
SNB-78
  GI50: 119 nM (active)
NCI-H226
  GI50: 179 nM (active)
XF498
  GI50: 1030 nM (active)
COLO 205
  GI50: 536 nM (active)
OVCAR-3
  GI50: 311 nM (active)
HOP-92
  GI50: 187 nM (active)
UACC-62
  GI50: 160 nM (active)
TK-10
  GI50: 953 nM (active)
LXFL 529
  GI50: 115 nM (active)
SK-OV-3
  GI50: 212 nM (active)
HT-29
  GI50: 330 nM (active)
